From ChEMBL document CHEMBL1201862, “PubChem BioAssay data set” (2004)
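Method: 48-hour compound exposure of cells in 96-well plates, five concentrations, linear interpolation of endpoints. Here, GI50 denotes the concentration required for 50% inhibition of growth.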 Calls of active or inactive are those of the source. Cut-off read from the data, not from the text of the source: active = GI50 up to about 1.1 µM and inactive = higher.

How the values were obtained:
Assay in all cases: inhibition of tumour cell growth, NCI panel, 48 h
A549 = tested on: A549
HCC 2998 = tested on: HCC 2998
HCT-116 = tested on: HCT-116
HCT-15 = tested on: HCT-15
IGROV-1 = tested on: IGROV-1
MOLT-4 = tested on: MOLT-4
NCI-H522 = tested on: NCI-H522
OVCAR-3 = tested on: OVCAR-3
OVCAR-4 = tested on: OVCAR-4
RPMI-8226 = tested on: RPMI-8226
SF-268 = tested on: SF-268
SF-295 = tested on: SF-295
SF-539 = tested on: SF-539
SK-MEL-28 = tested on: SK-MEL-28
SK-MEL-5 = tested on: SK-MEL-5
SW-620 = tested on: SW-620
U-251 = tested on: U-251
UACC-257 = tested on: UACC-257
EKVX = tested on: EKVX
A498 = tested on: A498

SMILES	GI50 (A549)	GI50 (HCC 2998)	GI50 (HCT-116)	GI50 (HCT-15) [µM]	GI50 (IGROV-1)	GI50 (MOLT-4)	GI50 (NCI-H522)	GI50 (OVCAR-3)	GI50 (OVCAR-4)	GI50 (RPMI-8226)	GI50 (SF-268)	GI50 (SF-295)	GI50 (SF-539)	GI50 (SK-MEL-28)	GI50 (SK-MEL-5)	GI50 (SW-620)	GI50 (U-251)	GI50 (UACC-257)	GI50 (EKVX)	GI50 (A498)
CCOC(=O)[C@H]1Nc2c(cccc2[N+](=O)[O-])C2c3ccccc3CC21 (stereo partly drawn)	> 100 µM (inactive)	> 100 µM (inactive)	> 100 µM (inactive)	> 100	> 100 µM (inactive)	> 100 µM (inactive)	> 100 µM (inactive)	40.8 µM (inactive)	36.9 µM (inactive)	> 100 µM (inactive)	> 100 µM (inactive)	35.6 µM (inactive)	> 100 µM (inactive)	> 100 µM (inactive)	> 100 µM (inactive)	> 100 µM (inactive)	> 100 µM (inactive)	27.7 µM (inactive)	–	–
COc1ccc(-n2cnn3c(=O)c4cn[nH]c4nc23)cc1	> 10 µM (inactive)	> 10 µM (inactive)	> 10 µM (inactive)	–	–	> 10 µM (inactive)	> 10 µM (inactive)	> 10 µM (inactive)	> 10 µM (inactive)	–	> 10 µM (inactive)	> 10 µM (inactive)	> 10 µM (inactive)	–	> 10 µM (inactive)	–	> 10 µM (inactive)	> 10 µM (inactive)	> 10 µM (inactive)	–
Nc1nc(Cl)cc(NCCCCCCCCCCCCNc2cc(Cl)nc(N)n2)n1	7.45 µM (inactive)	38.5 µM (inactive)	0.832 µM (active)	7.93	15.8 µM (inactive)	1.33 µM (inactive)	–	11.1 µM (inactive)	4.36 µM (inactive)	> 100 µM (inactive)	28.2 µM (inactive)	1.41 µM (inactive)	15.2 µM (inactive)	7.67 µM (inactive)	0.0861 µM (active)	28.8 µM (inactive)	0.345 µM (active)	0.515 µM (active)	12.3 µM (inactive)	12.9 µM (inactive)
CN(C)CCCCN1CCc2c(n(C)c3ccccc23)C1=O	50.6 µM (inactive)	–	22.4 µM (inactive)	27.9	57.9 µM (inactive)	50.6 µM (inactive)	33.3 µM (inactive)	> 81.3 µM (inactive)	–	–	31.3 µM (inactive)	25.9 µM (inactive)	–	16.7 µM (inactive)	17.7 µM (inactive)	27.4 µM (inactive)	–	16.5 µM (inactive)	36 µM (inactive)	–
COC1=CC(=O)c2ccccc2C1(C)C1=NC(C)(C)CO1 (stereo not drawn)	> 100 µM (inactive)	–	> 100 µM (inactive)	> 100	> 100 µM (inactive)	> 100 µM (inactive)	> 100 µM (inactive)	> 100 µM (inactive)	> 100 µM (inactive)	> 100 µM (inactive)	> 100 µM (inactive)	> 100 µM (inactive)	> 100 µM (inactive)	> 100 µM (inactive)	> 100 µM (inactive)	> 100 µM (inactive)	> 100 µM (inactive)	> 100 µM (inactive)	> 100 µM (inactive)	–
O=C1C2=C(c3ccccc31)C(c1ccc(Cl)cc1)NC(S)=N2 (stereo not drawn)	19.4 µM (inactive)	–	15.1 µM (inactive)	18.1	19 µM (inactive)	17.9 µM (inactive)	20.1 µM (inactive)	20.1 µM (inactive)	15.5 µM (inactive)	20.3 µM (inactive)	17.4 µM (inactive)	15.5 µM (inactive)	15.7 µM (inactive)	17.1 µM (inactive)	33.5 µM (inactive)	20.5 µM (inactive)	17.5 µM (inactive)	41.8 µM (inactive)	36.9 µM (inactive)	79.1 µM (inactive)
Cc1ccc(-c2c(C#N)c(-c3ccc([N+](=O)[O-])cc3)c(C#N)c(=O)n2NS(=O)(=O)c2ccccc2)cc1	36.6 µM (inactive)	25.5 µM (inactive)	31.7 µM (inactive)	36	30.9 µM (inactive)	18.9 µM (inactive)	28.6 µM (inactive)	–	28.1 µM (inactive)	–	49 µM (inactive)	27.8 µM (inactive)	32.3 µM (inactive)	36.3 µM (inactive)	12.1 µM (inactive)	38 µM (inactive)	40.3 µM (inactive)	88.3 µM (inactive)	40.5 µM (inactive)	57.7 µM (inactive)
CCCCCC1CC(C(C)=O)CN1c1ccc(F)cc1 (stereo not drawn)	51.4 µM (inactive)	38.1 µM (inactive)	27.1 µM (inactive)	52.8	–	–	21.2 µM (inactive)	28.1 µM (inactive)	–	–	32 µM (inactive)	21.2 µM (inactive)	> 100 µM (inactive)	54.5 µM (inactive)	19.8 µM (inactive)	29.7 µM (inactive)	41.5 µM (inactive)	30.5 µM (inactive)	50.6 µM (inactive)	77.6 µM (inactive)
C/C(=N\NC(=S)N1CCN(c2ccccn2)CC1)c1cccc(C)n1	3.48 µM (inactive)	11.9 µM (inactive)	< 0.01 µM (active)	< 0.01	< 0.01 µM (active)	< 0.01 µM (active)	0.0421 µM (active)	< 0.01 µM (active)	–	< 0.01 µM (active)	1.51 µM (inactive)	2.9 µM (inactive)	1.27 µM (inactive)	7.1 µM (inactive)	1.53 µM (inactive)	< 0.01 µM (active)	< 0.01 µM (active)	–	–	2.75 µM (inactive)
COC(=O)C1=C(C(=O)OC)C(N(C)C)C(C(=O)OC)=C(C(=O)OC)S1	> 100 µM (inactive)	> 100 µM (inactive)	> 100 µM (inactive)	> 100	–	> 100 µM (inactive)	–	> 100 µM (inactive)	> 100 µM (inactive)	> 100 µM (inactive)	> 100 µM (inactive)	> 100 µM (inactive)	–	> 100 µM (inactive)	–	> 100 µM (inactive)	> 100 µM (inactive)	> 100 µM (inactive)	–	> 100 µM (inactive)
COc1cc(Nc2nc3ccc(C(F)(F)F)cc3nc2C(=O)O)cc(OC)c1OC	33.3 µM (inactive)	18.6 µM (inactive)	18.5 µM (inactive)	18.2	25.6 µM (inactive)	29.2 µM (inactive)	21.4 µM (inactive)	32.1 µM (inactive)	15.1 µM (inactive)	21.5 µM (inactive)	18.8 µM (inactive)	27.1 µM (inactive)	31.4 µM (inactive)	26.8 µM (inactive)	34.4 µM (inactive)	25.7 µM (inactive)	19 µM (inactive)	20 µM (inactive)	34.9 µM (inactive)	–
CCc1cc2c(cc1O)CC[C@@H]1[C@@H]2CC[C@]2(C)[C@@H](O)CC[C@@H]12	8.05 µM (inactive)	10.2 µM (inactive)	–	4.83	11.2 µM (inactive)	5 µM (inactive)	8.81 µM (inactive)	–	12.3 µM (inactive)	–	6.41 µM (inactive)	3.91 µM (inactive)	–	5.14 µM (inactive)	7.11 µM (inactive)	4.16 µM (inactive)	4.76 µM (inactive)	8.02 µM (inactive)	9.71 µM (inactive)	18.7 µM (inactive)
COc1ccc(/C=N/NC(=O)NCCCN(C)C)cc1	> 100 µM (inactive)	–	> 100 µM (inactive)	> 100	> 100 µM (inactive)	> 100 µM (inactive)	> 100 µM (inactive)	> 100 µM (inactive)	–	–	> 100 µM (inactive)	> 100 µM (inactive)	> 100 µM (inactive)	> 100 µM (inactive)	> 100 µM (inactive)	> 100 µM (inactive)	> 100 µM (inactive)	> 100 µM (inactive)	–	> 100 µM (inactive)
CCOC(=O)/C(=N/Nc1ccc(Cl)cc1)N1C(=S)N(C)N=C(C)C=C1S	61.8 µM (inactive)	> 100 µM (inactive)	> 100 µM (inactive)	> 100	> 100 µM (inactive)	> 100 µM (inactive)	22.1 µM (inactive)	81.3 µM (inactive)	> 100 µM (inactive)	> 100 µM (inactive)	29.9 µM (inactive)	20.5 µM (inactive)	57.1 µM (inactive)	> 100 µM (inactive)	> 100 µM (inactive)	> 100 µM (inactive)	15.9 µM (inactive)	> 100 µM (inactive)	24.3 µM (inactive)	–
COc1ccc2cc(/C=N/NC(=O)Nc3ccccc3)ccc2c1	–	> 100 µM (inactive)	> 100 µM (inactive)	> 100	> 100 µM (inactive)	> 100 µM (inactive)	–	> 100 µM (inactive)	> 100 µM (inactive)	> 100 µM (inactive)	–	> 100 µM (inactive)	–	> 10 µM (inactive)	> 100 µM (inactive)	> 100 µM (inactive)	> 100 µM (inactive)	> 100 µM (inactive)	–	> 100 µM (inactive)
CCCCCC/C(CC(=O)CCC(=O)NCCc1ccccc1)=N\NC(=O)c1ccc2ccccc2c1O	48.2 µM (inactive)	53.3 µM (inactive)	29.9 µM (inactive)	–	33.7 µM (inactive)	11.5 µM (inactive)	–	28.8 µM (inactive)	37.8 µM (inactive)	46 µM (inactive)	22.6 µM (inactive)	48 µM (inactive)	–	45.9 µM (inactive)	29.5 µM (inactive)	52.7 µM (inactive)	37.9 µM (inactive)	30.1 µM (inactive)	43.2 µM (inactive)	–
COc1ccc2c(c1)/C(=C/CCN(C)C)c1ccccc1S2	> 100 µM (inactive)	44.3 µM (inactive)	55.8 µM (inactive)	> 100	–	67.1 µM (inactive)	–	> 100 µM (inactive)	–	–	92.9 µM (inactive)	> 100 µM (inactive)	–	19.4 µM (inactive)	16.2 µM (inactive)	> 100 µM (inactive)	> 100 µM (inactive)	> 100 µM (inactive)	–	> 100 µM (inactive)
